Results taken from patent US5989326A, “Dyes for ink jet printing” (Ilford Imaging Switzerland GmbH, priority 1997, dated 1999).
Several values for one entry are separate records, joined by “and”; a condition that tells them apart may be missing. Identical values can stand only once.

Columns and labels:
[1] = Dye solubility in deionised water; type: physicochemical; conditions: for Solubility: deionised water, stirred 1 hour at 50° C., cooled to 20° C.; for Solubility, comparison in words: versus previously known black disazo dyes 12 and 14
Procedure: The dye was dispersed or solubilised in deionised water and the dispersion or solution was stirred for one hour at 50° C. Then the mixture was cooled down to 20° C., centrifuged and filtered. The solubility of the dye was calculated a) from UV/VIS spectral data of the mother liquor (solution) or b) based on the dried filter residue.

[2] = Absorption maximum in water; type: physicochemical
Source text: The absorption maxima and the results of the tests (B) to (D) are reported in Table 6 for the dyes of the invention and the comparative values for previously known disazo dyes in Table 7.

Solubility [1] [g per 100 ml]	Solubility, comparison in words [1]	HD max in water [2]	SMILES
> 20	much higher solubility	575 nm	COc1cc(N=Nc2ccc3c(S(=O)(=O)O)cc(S(=O)(=O)O)cc3c2)c(C)cc1N=Nc1c(S(=O)(=O)O)cc2ccc(NCCS(=O)(=O)O)cc2c1O [Compound 6]
17	–	584 nm	COc1cc(N=Nc2c(S(=O)(=O)O)cc3ccc(Nc4ccc(C(=O)O)cc4)cc3c2O)c(OC)cc1N=Nc1ccc(C(=O)O)cc1 [Compound 14, reference compound]
–	–	557 nm	COc1cc(N=Nc2cccc(C(=O)O)c2)c(NC(C)=O)cc1N=Nc1c(S(=O)(=O)O)cc2ccc(N)cc2c1O [Compound 11, reference compound]
–	–	569 nm	COc1cc(N=Nc2cccc(S(=O)(=O)O)c2)c(C)cc1N=Nc1c(S(=O)(=O)O)cc2ccc(NCCS(=O)(=O)O)cc2c1O [Compound 1]
–	–	557 nm	COc1cc(N=Nc2cccc(C(=O)O)c2)c(C)cc1N=Nc1c(S(=O)(=O)O)cc2ccc(N)cc2c1O [Compound 15, reference compound]
> 20	much higher solubility	–	Cc1cc(N=Nc2c(S(=O)(=O)O)cc3ccc(NCCS(=O)(=O)O)cc3c2O)c(OCCO)cc1N=Nc1cccc(S(=O)(=O)O)c1 [Compound 2]
3.6	–	498 nm	COc1cc(N=Nc2cccc(C(=O)O)c2)c(NC(C)=O)cc1N=Nc1c(S(=O)(=O)O)cc2ccc(Nc3ccc(C(=O)O)cc3)cc2c1O [Compound 12, reference compound]
> 20	much higher solubility	584 nm	COc1cc(N=Nc2cc(S(=O)(=O)O)c3cccc(S(=O)(=O)O)c3c2)c(C)cc1N=Nc1c(S(=O)(=O)O)cc2ccc(NCCS(=O)(=O)O)cc2c1O [Compound 4]
–	–	559 nm	Cc1cc(N=Nc2c(S(=O)(=O)O)cc3ccc(Nc4cccc(S(=O)(=O)O)c4)cc3c2O)ccc1N=Nc1cc(S(=O)(=O)O)c2cccc(S(=O)(=O)O)c2c1 [Compound 10, reference compound]
–	–	488 nm	COc1cc(N=Nc2cccc(C(=O)O)c2)c(NC(C)=O)cc1N=Nc1c(S(=O)(=O)O)cc2ccc(NCCC(=O)O)cc2c1O [Compound 13, reference compound]
–	–	583 nm	Cc1cc(N=Nc2c(S(=O)(=O)O)cc3ccc(NCCS(=O)(=O)O)cc3c2O)c(OCCO)cc1N=Nc1cc(S(=O)(=O)O)c2cccc(S(=O)(=O)O)c2c1 [Compound 5]
–	–	595 nm and 491 nm	COc1cc(N=Nc2c(S(=O)(=O)O)cc3ccc(NCCS(=O)(=O)O)cc3c2O)c(OC)cc1N=Nc1cc(S(=O)(=O)O)c2cccc(S(=O)(=O)O)c2c1 [Compound 7]
